Where “and” joins values, the source holds several entries; their conditions need not be identical. Equal values may be shown once. Read-outs that look alike come from different tables or passages of the source.
Assays:
HT1080 cells [1] = assay: CellTiter-Glo luminescent cell viability assay (ATP), dose-response; assay type: cell-based, human
Protocol: Cells were plated in an opaque-walled 96-well plate and treatment with ferroptosis inducers and/or ferroptosis inhibitors was initiated 24 h later. […] Here, the reaction agent was directly added to the wells, mixed on an orbital shaker for 2 min, and then incubated at room temperature for 10 min. The luminescence was detected using a Promega GloMax® instrument.

CD10-135 cells = assay: FINs/ferroptocide, LDH release assay; assay type: cell-based, human; set-up: LDH release: unit not given here; details: Nec-1f 30 µM
[2] = test system: Mouse cortical tubule cells (MCT); assay: FINs/ferroptocide, 7-AAD/annexin V flow cytometry; assay type: cell-based; details: MCT, alone (DMSO) or with Fer-1 1 µM, Nec-1s 30 µM, Nec-1f 30 µM
Protocol: (§1) To induce necroptosis in a human cell line, HT29 cells were stimulated at the indicated time points with 20 ng/ml human TNFα (Biolegend), 1 μM SMAC-mimetics (Birinapant, Chemietek), and 20 μM zVAD-fmk (Selleckchem, herein referred to as zVAD). For the induction of necroptosis in NIH3T3 cells, cells were incubated with 20 ng/ml TNF-α and 20 μM zVAD for indicated time points. […] Cells were seeded in six-well plates or petri dishes. […] After indicated time points, cells were collected and prepared for flow cytometry, immunoblotting, and/or LDH release assays.
(§2) Cells were harvested and the pellets were washed twice in PBS and stained with 5 μl of 7-AAD (BD Biosciences) and 5 μl of annexin-V-FITC (BD Biosciences) added to 100 μl annexin-V binding buffer (BD Biosciences). After 15 min, cells were recorded on the LSRII with the FACS Diva 6.1.1 software (BD Biosciences) and subsequently analyzed with the FlowJo v10 software (Tree Star).

NIH3T3 cells [3] = assay: Ferroptosis inducers (FINs)/ferroptocide, 7-AAD/annexin V flow cytometry; assay type: cell-based, murine; details: NIH3T3, 5 µM erastin 24 h, alone (DMSO) or with Fer-1 1 µM, Nec-1s 30 µM, Nec-1f 30 µM
[4] = Stability in human plasma; assay type: in vitro ADME; details: 1 µM, 37 °C
Protocol: Plasma stability is defined as the percentage of parent compound remaining in plasma over the time. Here, incubations were carried out in 5 aliquots of 70 µl each (one for each time point), in duplicates. […] The percentage of the test compounds remaining after incubation in plasma and their half-lives (T1/2) was calculated.

[5] = both, microsomes, 2 µM, pH 7.4
HT1080 cells [6] = assay: Ferroptosis inducers (FINs)/ferroptocide, 7-AAD/annexin V flow cytometry; assay type: cell-based, human
[7] = test system: primary murine tubular cells; assay: RSL3-induced LDH release of primary kidney tubular cells; assay type: cell-based; details: primary kidney tubular cells, RSL3 14 h, alone (DMSO) or with Fer-1 or Nec-1f 30 µM
Protocol: The LDH release of cells or of freshly isolated kidney tubules was measured according to manufacturers’ instructions at indicated time points. In brief, an aliquot of the supernatant was taken and Lysis Solution was added for 45 min to induce maximal LDH release before another aliquot of the supernatant was taken. Subsequently, the supernatants were incubated with CytoTox 96® Reagent for 15 min protected from light at room temperature before adding Stop Solution. Absorbance was measured at 490 nm.
Generation, cell culture, and induction of cell death in primary murine tubular cells. Murine tubular cells were generated by outgrowth from isolated renal tubules (see above). Primary murine tubules were placed in six-well plates containing Dulbecco’s Modified Eagle Medium F-12 Nutrient Mixture without phenol red (DMEM/F12, Thermo Fisher), supplemented with 0.01 mg/ml recombinant human insulin, 5.5 μg/ml human transferrin, 0.005 μg/ml Na2SeO3 (ITS without linoleic acid, Sigma Aldrich), 50 nM hydrocortisone, 100 U/ml penicillin, and 100 μg/ml streptomycin (Pen/Strep, Thermo Fisher). After two days, the outgrown primary murine tubular cells were washed with PBS and a fresh medium was added. When the number of primary murine tubular cells reached approximately 50% confluence, the cells were removed from the six-well plates using Trypsin-EDTA (Thermo Fisher), washed with medium and a Ficoll Paque Plus (Sigma Aldrich) gradient was performed to remove any dead cells, and debris from the murine renal tubules. Cells were washed twice with PBS and seeded in six-well plates with medium. Once the number of grown cells reached approximately 50% confluence, they were washed with PBS and treated with type 2 FIN: RSL3 (also see Supplementary Table 2 for details). After 14 h, medium and cells were collected and prepared for LDH release assay. Images of the treated primary murine tubular cells were obtained using a 20×/0.30 PH1 objective on a Leica DMi1 microscope.

NIH3T3 cells [8] = assay: Ferroptosis inducers (FINs)/ferroptocide, 7-AAD/annexin V flow cytometry; assay type: cell-based, murine; details: NIH3T3, 10 µM FIN56 24 h, alone (DMSO) or with Fer-1 1 µM, Nec-1s 30 µM, Nec-1f 30 µM
Protocol: as §1, §2

Structure (SMILES): C[C@@H]1CC[C@@]23C[C@H](O)C(=O)[C@@]2(O)[C@]1(C)[C@H](OC(=O)CCl)C[C@@H](C1=CCn2c(=O)n(-c4ccccc4)c(=O)n2C1)[C@@H]3C [ferroptocide]
- ATP luminescence (CellTiterGlo) (HT1080 cells [1]; HT1080, inducer at 0.01 µM): 100%
- ATP luminescence (CellTiterGlo) (HT1080 cells [1]; HT1080, inducer at 0.1 µM): 100%
- ATP luminescence (CellTiterGlo) (HT1080 cells [1]; HT1080, inducer at 0.5 µM): 67.8646% and 100%
- ATP luminescence (CellTiterGlo) (HT1080 cells [1]; HT1080, inducer at 50 µM): -0.02481% and 0.12%
- ATP luminescence (CellTiterGlo) (HT1080 cells [1]; HT1080, inducer at 100 µM): 0% and 0.4% and -1.103% and 0.1%
- ATP luminescence (CellTiterGlo) (HT1080 cells [1]; HT1080, inducer at 200 µM): 0% and -0.7765% and 0.13%
- LDH release (CD10-135 cells; CD10-135, ferroptocide alone (FIN) or with Fer-1, Nec-1s): 93.9 and 97.7396

Structure (SMILES): CCOc1ccccc1-n1c(C(C)N2CCN(C(=O)COc3ccc(Cl)cc3)CC2)nc2ccccc2c1=O (stereo not drawn) [erastin]
- ATP luminescence (CellTiterGlo) (HT1080 cells [1]; HT1080, inducer at 0.01 µM): 100%
- ATP luminescence (CellTiterGlo) (HT1080 cells [1]; HT1080, inducer at 0.1 µM): 100%
- ATP luminescence (CellTiterGlo) (HT1080 cells [1]; HT1080, inducer at 0.5 µM): 90.0281% and 100%
- ATP luminescence (CellTiterGlo) (HT1080 cells [1]; HT1080, inducer at 1 µM): 57.4401% and 100%
- ATP luminescence (CellTiterGlo) (HT1080 cells [1]; HT1080, inducer at 100 µM): 3.949%
- ATP luminescence (CellTiterGlo) (HT1080 cells [1]; HT1080, inducer at 200 µM): 12.3673% and 20.98%
- double-negative events (7-AAD/annexin V) ([2]; 5 µM erastin 24 h): 51.9% and 85.2% and 80.4% and 71%
- LDH release (CD10-135 cells; CD10-135, erastin alone (FIN) or with Fer-1, Nec-1s): 92.68 and 85.398 and 91.0128
- double-negative events (7-AAD/annexin V) (NIH3T3 cells [3]): 10.4% and 3.36% and 6.36% and 2.66%

Structure (SMILES): CC(C)[N+](C)(CCOC(=O)C1c2ccccc2Oc2ccccc21)C(C)C [propantheline, reference compound]
- Human plasma stability, parent compound remaining ([4]; 0 min): 100%
- Human plasma stability, parent compound remaining ([4]; 20 min): 65%
- Human plasma stability, parent compound remaining ([4]; 40 min): 31%
- Human plasma stability, parent compound remaining ([4]; 60 min): 16%
- Human plasma stability, parent compound remaining ([4]; 120 min): 2%

Structure (SMILES): CC1(CCO)CC2(CCC(C(C)(C)C)CC2)OO1 (stereo not drawn) [FINO2]
- ATP luminescence (CellTiterGlo) (HT1080 cells [1]; HT1080, inducer at 0.01 µM): 100%
- ATP luminescence (CellTiterGlo) (HT1080 cells [1]; HT1080, inducer at 0.1 µM): 100%
- ATP luminescence (CellTiterGlo) (HT1080 cells [1]; HT1080, inducer at 0.5 µM): 100%
- ATP luminescence (CellTiterGlo) (HT1080 cells [1]; HT1080, inducer at 1 µM): 100% and 53.72%
- ATP luminescence (CellTiterGlo) (HT1080 cells [1]; HT1080, inducer at 50 µM): 0.7403% and 0.06%
- ATP luminescence (CellTiterGlo) (HT1080 cells [1]; HT1080, inducer at 100 µM): 0% and 0.26% and 0.2% and 0.08%
- ATP luminescence (CellTiterGlo) (HT1080 cells [1]; HT1080, inducer at 200 µM): 0% and 0.3058% and 0.04%
- LDH release (CD10-135 cells; CD10-135, FINO2 alone (FIN) or with Fer-1, Nec-1s): 73.83 and 38.4304 and 67.2452

Structure (SMILES): O=C(O)Cc1ccccc1Nc1c(Cl)cccc1Cl [diclofenac, reference compound]
- Human microsomal stability, parent compound remaining ([5]; 0 h): 100%
- Human microsomal stability, parent compound remaining ([5]; 7 min): 62%
- Human microsomal stability, parent compound remaining ([5]; 0.25 h): 26%
- Human microsomal stability, parent compound remaining ([5]; 25 min): 6%
- Human microsomal stability, parent compound remaining ([5]; 40 min): 2%

Structure (SMILES): COC(=O)c1ccc([C@@H]2c3[nH]c4ccccc4c3C[C@@H](C(=O)OC)N2C(=O)CCl)cc1 [RSL3]
- ATP luminescence (CellTiterGlo) (HT1080 cells [1]; HT1080, inducer at 0.01 µM): 100%
- ATP luminescence (CellTiterGlo) (HT1080 cells [1]; HT1080, inducer at 0.1 µM): 100%
- ATP luminescence (CellTiterGlo) (HT1080 cells [1]; HT1080, inducer at 0.113 µM): 100%
- ATP luminescence (CellTiterGlo) (HT1080 cells [1]; HT1080, inducer at 0.5 µM): 30.56% and 28.07% and 28.8%
- ATP luminescence (CellTiterGlo) (HT1080 cells [1]; HT1080, inducer at 1 µM): 18.36% and 19.43% and 14.93%
- ATP luminescence (CellTiterGlo) (HT1080 cells [1]; HT1080, inducer at 1.13 µM): 55.71% and 77.56% and 64%
- ATP luminescence (CellTiterGlo) (HT1080 cells [1]; HT1080, inducer at 5 µM): 11.16% and 17.99% and 22.07%
- LDH release (CD10-135 cells; CD10-135, RSL3 alone (FIN) or with Fer-1, Nec-1s): 53.16 and 45.5353
- double-negative events (7-AAD/annexin V) (HT1080 cells [6]; HT1080, 1.13 µM RSL3 6 h, alone (DMSO) or with Fer-1 1 µM, Nec-1s 30 µM, Nec-1f 30 µM): 61% and 47.8% and 51.8% and 65.7%
- LDH release [7]: 91.18% and 51.15% and 48.12% and 50.73% and 54.44%

Structure (SMILES): O=S(=O)(NC1CCCCC1)c1ccc2c(c1)C(=NO)c1cc(S(=O)(=O)NC3CCCCC3)ccc1-2 [FIN56]
- ATP luminescence (CellTiterGlo) (HT1080 cells [1]; HT1080, inducer at 0.01 µM): 100%
- ATP luminescence (CellTiterGlo) (HT1080 cells [1]; HT1080, inducer at 0.1 µM): 100%
- ATP luminescence (CellTiterGlo) (HT1080 cells [1]; HT1080, inducer at 0.5 µM): 100%
- ATP luminescence (CellTiterGlo) (HT1080 cells [1]; HT1080, inducer at 1 µM): 100%
- double-negative events (7-AAD/annexin V) ([2]; 10 µM FIN56 24 h): 96.5% and 90.7% and 88.5%
- LDH release (CD10-135 cells; CD10-135, FIN56 alone (FIN) or with Fer-1, Nec-1s): 81.45 and 58.7091 and 60.5407
- double-negative events (7-AAD/annexin V) (NIH3T3 cells [8]): 87.6% and 95% and 90.3%
- Induction of ferroptosis (HT1080 cells [6]; HT1080): does not effectively drive ferroptosis
- double-negative events (7-AAD/annexin V) (HT1080 cells [6]; HT1080, 10 µM FIN56 24 h, alone (DMSO) or with Fer-1 1 µM, Nec-1s 30 µM, Nec-1f 30 µM): 85.5% and 85.1% and 86%
- double-negative events (7-AAD/annexin V) (HT1080 cells [6]; HT1080, FIN56 10 µM, 24 h): 95% and 96% and 94%
- double-negative events (7-AAD/annexin V) (HT1080 cells [6]; HT1080, FIN56 10 µM, 48 h): 92% and 90% and 74%
- double-negative events (7-AAD/annexin V) (HT1080 cells [6]; HT1080, FIN56 20 µM, 24 h): 92% and 93%
- double-negative events (7-AAD/annexin V) (HT1080 cells [6]; HT1080, FIN56 20 µM, 48 h): 93% and 92% and 89% and 71%
- double-negative events (7-AAD/annexin V) (HT1080 cells [6]; HT1080, FIN56 50 µM, 24 h): 85% and 92% and 93%
- double-negative events (7-AAD/annexin V) (HT1080 cells [6]; HT1080, FIN56 50 µM, 48 h): 83% and 87% and 78% and 65%
- double-negative events (7-AAD/annexin V) (HT1080 cells [6]; HT1080, FIN56 100 µM, 24 h): 85% and 86% and 80%

Source: PMC8292346, “Dysfunction of the key ferroptosis-surveilling systems hypersensitizes mice to tubular necrosis during acute kidney injury” (Nature Communications, 2021)
